Entries after “also recorded” stand apart in the source; their conditions may differ.
Key:
Assay type in all cases: cell-based, mouse
[1] = system: pZscan4-Emerald ESCs; experiment: FACS analysis of Zscan4-Emerald ESCs (Emerald-GFP positive cells); details: for elevated expression of 2C-like specific genes (Zscan4, MERVL) upon APH and HU treatment: inhibitor added under replication stress, flow cytometry and immunoblot
Method: All treatments including APH, HU, UV, ATRi, ATMi and Chk1i were added in to fresh ESC medium and the cells were kept in 37° C. and 3% 02 tension for overnight (16-17 hrs) unless mentioned in each particular result section. APH was used at various concentrations ranging from 0.3 uM to 6 uM that is mentioned in each experiment in order to induce mild to acute replication stress response. Similarly, HU was used at 0.1 mM-3 mM. ATMi (KU-55933) and ATRi (VE 822) were used at the concentration of 10 uM and 1 uM respectively. Moreover, Chk1i (UCN-01) at the concentration of 100 nM was used. UV radiation was performed at the dosage ranging from 2 to 10 J/m2. For induction of ETAA1-AAD expression, Dox was used at the concentration of 1 μg/mL for 48 hrs.
(§1) ESCs were fixed and permeabilized using Cytoperm/Cytofix kit (BD Biosciences), and subsequently stained for one hour at room temperature with Alexa Fluor® 647 anti-H2AX-Phosphorylated (Ser139) antibody (Biolegend) or P-CHK1-PE conjugated antibody (cell signaling 12268). Cells were washed and acquired on a FACS Calibur instrument or Attune NxT (Thermo Fisher Scientific). For Emerald-GFP acquisition, cells were trypsinized, collected and subsequently acquired without fixation. Cell cycle profiles were acquired after incubation with DAPI (4′,6-diamidino-2-phenylindole) overnight. For Caspase3 FACS analysis after fixation and permeabilization, Cleaved Caspase3 antibody were used for one hr at RT followed by washes and one hr incubation in donkey anti rabbit secondary antibody. […]

[2] = system: pZscan4-Emerald ESCs; experiment: FACS for Emerald-GFP and CASPASE-3 (apoptosis); details: mostly at high concentration
Text: as §1

[3] = system: ESC lines E14, R1 and MC1; experiment: High-throughput transcriptional profiling (RNA sequencing) of ESC lines E14, R1 and MC1
Method: RNA samples were quantified using Qubit 2.0 Fluorometer (Life Technologies, Carlsbad, Calif., USA) and RNA integrity was checked with RNA Screen Tape on Agilent 2200 TapeStation (Agilent Technologies, Palo Alto, Calif., USA). […] RNA sequencing library preparation was prepared using Ribo-Zero rRNA Removal Kit and TruSeq Stranded Total RNA library Prep kit following manufacturer's protocol (Illumina, Cat # RS-122-2101). Briefly, rRNA was depleted with Ribo-Zero rRNA Removal Kit. rRNA depleted RNAs were fragmented for 8 minutes at 94° C. First strand and second strand cDNA were subsequently synthesized. The second strand of cDNA was marked by incorporating dUTP during the synthesis. cDNA fragments were adenylated at 3′ends, and indexed adapter was ligated to cDNA fragments. Limited cycle PCR was used for library enrichment. The incorporated dUTP in second strand cDNA quenched the amplification of second strand, which helped to preserve the strand specificity. Sequencing libraries were validated using DNA Analysis Screen Tape on the Agilent 2200 TapeStation (Agilent Technologies, Palo Alto, Calif., USA), and quantified by using Qubit 2.0 Fluorometer (Invitrogen, Carlsbad, Calif.) as well as by quantitative PCR (Applied Biosystems, Carlsbad, Calif., USA).
The sequencing libraries were multiplexed and clustered on 1 lane of flowcell. […] On average ˜29 million reads were generated for a sample and average insert size ranged between 204-231 for the samples.
Transcript and gene level quantification was done with Kallisto (version 0.43.0)^16. […] Additionally, all reads were mapped with the STAR spliced aligner (version 2.5.2b)^17 to the GRCm38 (mm10) genome after trimming the reads to 100 bp with Trimmomatic (version 0.36)^18. Repeat expression was quantified by counting fragments overlapping with the repeat annotation from the Choi et al. 2017 paper, with using FeatureCounts from the subread package (version 1.5.2)^19. […]
Read counts for each sample estimated by Kallisto were imported into the R statistical environment (version 3.2.2) using tximport (version 1.1.2)^20. […]

[4] = system: C57BL/6N morulae; experiment: Viability of APH-treated embryos; details: APH 1.5 μM in KSOM for 4 hrs

Structure (SMILES) | number of Emerald-GFP positive (Em+) ESCs ([1]; RS inducing agents, dose-dependent, qPCR and FACS) | cell apoptosis (CASPASE-3) [2] | downregulated genes ([3]; APH treatment, FDR<0.05) [genes] | upregulated genes with more than two-fold change ([3]; APH treatment, FDR<0.05) [genes] | viability of the embryos [4] | elevated expression of 2C-like specific genes (Zscan4, MERVL) upon APH and HU treatment [1] | elevated expression of 2C-like specific genes (Zscan4, MERVL) upon APH and HU treatment ([1]; listed as ATR inhibitor) | number of Zscan4-Emerald positive cells ([1]; normal culture condition, ATRi 1 uM, ATMi 10 uM) | genes shared between APH and DUX-induced condition rescued ([3]; APH plus ATRi) [%]
C[C@@]1(CO)[C@H](O)CC[C@@]2(C)[C@H]1CC[C@H]1C[C@@H]3C[C@@]12CC[C@]3(O)CO [APH, aphidicolin] | significant increase | mild cell apoptosis | 640 | 3074 | no effect on the viability of the embryos | – | – | – | –
CNCc1ccc(-c2cc(-c3nc(-c4ccc(S(=O)(=O)C(C)C)cc4)cnc3N)on2)cc1 [VE 822] | – | – | – | – | – | robustly revert | robustly suppress | markedly reduce; also recorded: marked reduction | 71

Source: patent publication US20200131473A1, “METHOD OF GENERATING 2 CELL-LIKE STEM CELLS” (IFOM FONDAZIONE ISTITUTO FIRC DI ONCOLOGIA MOLECOLARE, priority 2017, published 2020)
